Molecular target: T1, human GLP-1R receptor (Homo sapiens, UniProt P43220)
T1 construct: expressed in transfected cells
Assay: GLP-1R low expression cell assay (cAMP TR-FRET, CHO-K1_hGLP-1Rlow_clone10 cells)
Type: cell-based
Details: for EC50: cAMP TR-FRET, 30 min at 25° C.; for Emax: maximum activation relative to control GLP-1 peptide agonist
Description: Stable cell lines expressing high and low GLP-1R surface expression were generated in CHO-K1 cells transfected (Fugene 6) with a puromycin selectable DNA plasmid encoding human GLP-1R receptor (accession number: NM_002062.5) under control of an EF1A promoter. Transfected cells were seeded into 24-well plates (9,000 cells/well) containing complete medium and incubated in a humidified incubator at 37° C. with 5% carbon dioxide. After overnight incubation, medium was replaced with complete medium supplemented with puromycin (6 μg/mL) and refreshed every 2-3 days to select for stably transfected cells. Individual pools of selected cells were expanded prior to analysis for responsiveness to GLP-1 control peptide using a TR-FRET assay to detect cAMP (LANCE Ultra CAMP Assay, Perkin Elmer). Briefly, cells were collected in Versene solution, plated in 384-well plates (1,000 cells/well) and combined with serially diluted GLP-IR control peptide (10 nL) using an acoustic dispenser (ECHO). Plates were incubated for 30 minutes at 25° C. prior to the addition of EU-CAMP tracer (5 μL) and Ulight-anti-CAMP (5 μL) reagents to each well, followed by 15 minutes incubation at 25° C. TR-FRET signal was detected using an En Vision Multimode Plate Reader (excitation=320 nm; emission=615 and 655 nm). Dose-response curves were used to generate EC50 values as a measure of responsiveness to the GLP-IR control peptide. Selected cell lines were monitored for responsiveness over multiple passages to ensure stability. […] Briefly, GLP-IR expression was analyzed by flow cytometry using a fluorescein-labeled Exendin-4 peptide fluorescent probe (FLEX). Cells were harvested in Versene solution and washed 3-times with PBS+0.5% BSA before incubation with FLEX reagent (10 μM) for 2 hours at room temperature. After incubation, cells were washed 3-times in PBS+0.5% BSA before final resuspension in PBS prior to analysis by flow cytometry to measure FLEX mean fluorescence intensity (MFI) as a measure of GLP-IR expression on the cell surface.
For compound testing in the CHO-K1_hGLP-IRlow_clone10 cell line, cells were seeded in 384-well plates (1,000 cells/well). Test compounds were serially diluted in DMSO (10-point, 3-fold dilution), added to wells using an ECHO dispenser (10 nL/well) and plates were centrifuged for 1 min and agitated for 2 min at room temperature prior to 30-minute incubation at 25° C. After incubation, Eu-CAMP (5 μL) and Ulight-anti-cAMP (5 μL) reagents were added to each well, followed by centrifugation for 1 minute, agitation for 2 minutes at room temperature, and final incubation of the plates at 25° C. for 15 minutes. Plates were read using an EnVision microplate reader (excitation=320 nm; emission=615 and 655 nm). Dose-response curves were generated from duplicate wells based on percent activation calculated relative to a control GLP-1 peptide agonist that was run in parallel. EC50 values were determined by fitting percent activation as a function of compound concentration using the Hill equation (XLfit).
The compounds tested were compound samples prepared according to the General Procedures described in the Examples section.

T1 sequence (P43220 24-463): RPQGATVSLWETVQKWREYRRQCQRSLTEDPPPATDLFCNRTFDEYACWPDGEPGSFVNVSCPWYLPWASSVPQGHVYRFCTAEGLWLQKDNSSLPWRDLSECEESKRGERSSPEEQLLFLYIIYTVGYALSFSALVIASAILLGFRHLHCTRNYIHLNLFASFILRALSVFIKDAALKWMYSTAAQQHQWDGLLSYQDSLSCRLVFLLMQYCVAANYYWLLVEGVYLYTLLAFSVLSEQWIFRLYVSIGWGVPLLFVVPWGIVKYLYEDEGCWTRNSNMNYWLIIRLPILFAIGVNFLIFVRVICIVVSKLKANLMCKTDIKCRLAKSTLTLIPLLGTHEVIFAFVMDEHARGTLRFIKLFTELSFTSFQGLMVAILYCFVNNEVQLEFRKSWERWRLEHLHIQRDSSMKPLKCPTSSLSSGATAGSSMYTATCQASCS

| EC50 [nM] | Emax [%] | Structure (SMILES) |
| --- | --- | --- |
| < 10 | > 85 | COc1cc(C(=O)O)cc2c1nc(CN1CCC(c3cccc(OCc4ccc(C#N)c5c4OCC5)n3)CC1)n2C [Compound 283, 2-((4-(6-((4-Cyano-2,3-dihydrobenzofuran-7-yl)methoxy)pyridin-2-yl)piperidin-1-yl)methyl)-4-methoxy-1-methyl-1H-benzo[d]imidazole-6-carboxylic acid] |
| < 10 | > 85 | COc1cc(C(=O)O)cc2c1nc(N(C)[C@H]1CC[C@H](c3cccc(OCc4ccc(Cl)cc4F)n3)CC1)n2C [Compound 363, 2-(((1r,4r)-4-(6-((4-Chloro-2-fluorobenzyl)oxy)pyridin-2-yl)cyclohexyl)(methyl)amino)-4-methoxy-1-methyl-1H-benzo[d]imidazole-6-carboxylic acid] |
| 10 to 100 | – | Cn1c(CN2CCC(c3cccc(OCc4ccc(Cl)cc4)n3)CC2)nc2c(OC(F)F)cc(C(=O)O)cc21 [Compound 252, 2-((4-(6-((4-Chlorobenzyl)oxy)pyridin-2-yl)piperidin-1-yl)methyl)-4-(difluoromethoxy)-1-methyl-1H-benzo[d]imidazole-6-carboxylic acid] |
| 10 to 100 | > 85 | Cn1c(CN2CCC(c3cccnc3OCc3ccc(Cl)cc3F)CC2)nc2c(OC(F)F)cc(C(=O)O)cc21 [Compound 364, 2-((4-(2-((4-Chloro-2-fluorobenzyl)oxy)pyridin-3-yl)piperidin-1-yl)methyl)-4-(difluoromethoxy)-1-methyl-1H-benzo[d]imidazole-6-carboxylic acid] |
| > 1000 | < 25 | Cn1c(CN2CCC(c3ccc4c(c3)N(Cc3ccc(Cl)cc3F)CCO4)CC2)nc2c(OC(F)F)cc(C(=O)O)cc21 [Compound 373, 2-((4-(4-(4-Chloro-2-fluorobenzyl)-3,4-dihydro-2H-benzo[b][1,4]oxazin-6-yl)piperidin-1-yl)methyl)-4-(difluoromethoxy)-1-methyl-1H-benzo[d]imidazole-6-carboxylic acid] |
| < 10 | > 85 | COc1cc(C(=O)O)cc2c1nc(CN1CCC(c3cccc4c3O[C@@H](c3ccc(Cl)cc3F)CO4)CC1)n2C [Compound 268, (S)-2-((4-(3-(4-Chloro-2-fluorophenyl)-2,3-dihydrobenzo[b][1,4]dioxin-5-yl)piperidin-1-yl)methyl)-4-methoxy-1-methyl-1H-benzo[d]imidazole-6-carboxylic acid] |
| 10 to 100 | > 85 | CC(F)(F)c1cc(C(=O)O)cc2c1nc(CN1CCC(c3cccc4c3O[C@@](C)(c3ccc(Cl)cn3)O4)CC1)n2C[C@@H]1CCO1 [Compound 386, 2-((4-((S)-2-(5-Chloropyridin-2-yl)-2-methylbenzo[d][1,3]dioxol-4-yl)piperidin-1-yl)methyl)-4-(1,1-difluoroethyl)-1-(((S)-oxetan-2-yl)methyl)-1H-benzo[d]imidazole-6-carboxylic acid] |

Second part, the compound before the results:

| Structure (SMILES) | EC50 [nM] | Emax [%] |
| --- | --- | --- |
| Cn1c(CN2CCC(c3nccc(OCc4ccc(C#N)cc4F)n3)CC2)nc2c(OC(F)F)cc(C(=O)O)cc21 [Compound 184, 2-((4-(4-((4-Cyano-2-fluorobenzyl)oxy)pyrimidin-2-yl)piperidin-1-yl)methyl)-4-(difluoromethoxy)-1-methyl-1H-benzo[d]imidazole-6-carboxylic acid] | 100 to 1000 | > 85 |
| CN(c1nc2c(OC(F)F)cc(C(=O)O)cc2n1C[C@@H]1CCO1)[C@H]1CC[C@H](c2cccc(OCc3ccc(C#N)cc3F)n2)CC1 [Compound 132, 2-(((1r,4S)-4-(6-((4-cyano-2-fluorobenzyl)oxy)pyridin-2-yl)cyclohexyl) (methyl)amino)-4-(difluoromethoxy)-1-(((S)-oxetan-2-yl)methyl)-1H-benzo[d]imidazole-6-carboxylic acid] | < 10 | > 85 |
| Cn1c(CN2CC=C(c3cccc(OCc4ccc(Cl)cc4F)n3)CC2)nc2c(OC(F)F)cc(C(=O)O)cc21 [Compound 155, 2-((6-((4-Chloro-2-fluorobenzyl)oxy)-3′,6′-dihydro-[2,4′-bipyridin]-1′(2′H)-yl)methyl)-4-(difluoromethoxy)-1-methyl-1H-benzo[d]imidazole-6-carboxylic acid] | 10 to 100 | > 85 |
| Cn1c(CN2CCC(c3cccc(F)c3OCc3ccc(C#N)cc3F)CC2)nc2c(OC(F)F)cc(C(=O)O)cc21 [Compound 182, 2-((4-(2-((4-Cyano-2-fluorobenzyl)oxy)-3-fluorophenyl)piperidin-1-yl)methyl)-4-(difluoromethoxy)-1-methyl-1H-benzo[d]imidazole-6-carboxylic acid] | 100 to 1000 | > 85 |
| C[C@]1(c2ccc(Cl)cn2)Oc2cccc(C3CCN(Cc4nc5cc(C(=O)O)cc6c5n4CCO6)CC3)c2O1 [Compound 75, (S)-2-((4-(2-(5-chloropyridin-2-yl)-2-methylbenzo[d][1,3]dioxol-4-yl)piperidin-1-yl)methyl)-3,4-dihydro-5-oxa-1,2a-diazaacenaphthylene-7-carboxylic acid] | > 1000 | < 25 |
| CO[C@H]1C[C@H](Oc2cc(C(=O)O)cc3c2nc(CN2CCC(c4cccc(OCc5ccc(C#N)cc5F)n4)CC2)n3C)C1 [Compound 317, 2-((4-(6-((4-Cyano-2-fluorobenzyl)oxy)pyridin-2-yl)piperidin-1-yl)methyl)-4-((1r,3r)-3-methoxycyclobutoxy)-1-methyl-1H-benzo[d]imidazole-6-carboxylic acid] | 100 to 1000 | > 85 |
| CCn1c(CN2CCC(c3cccc4c3O[C@@](C)(c3ccc(Cl)cn3)O4)CC2)nc2c(OC(C)C)cc(C(=O)O)cc21 [Compound 88, (S)-2-((4-(2-(5-Chloropyridin-2-yl)-2-methylbenzo[d][1,3]dioxol-4-yl)piperidin-1-yl)methyl)-1-ethyl-4-isopropoxy-1H-benzo[d]imidazole-6-carboxylic acid] | 10 to 100 | > 85 |
| CC(=O)Oc1cc(C(=O)O)cc2c1nc(CN1CCC(c3cccc(OCc4ccc(C#N)cc4F)n3)CC1)n2C [Compound 128, 4-Acetoxy-2-((4-(6-((4-cyano-2-fluorobenzyl)oxy)pyridin-2-yl)piperidin-1-yl)methyl)-1-methyl-1H-benzo[d]imidazole-6-carboxylic acid] | 10 to 100 | > 85 |
| Cn1c(CN2CCC(c3cccc(Cl)c3OCc3ccc(C#N)cc3F)CC2)nc2c(OC(F)F)cc(C(=O)O)cc21 [Compound 138, 2-((4-(3-Chloro-2-((4-cyano-2-fluorobenzyl)oxy)phenyl)piperidin-1-yl)methyl)-4-(difluoromethoxy)-1-methyl-1H-benzo[d]imidazole-6-carboxylic acid] | > 1000 | 25 to 50 |
| Cn1c(CN2CCC(c3cccc4c3O[C@@H](c3ccc(C#N)cc3F)CO4)CC2)nc2c(OC(F)F)cc(C(=O)O)cc21 [Compound 123, (S)-2-((4-(3-(4-Cyano-2-fluorophenyl)-2,3-dihydrobenzo[b][1,4]dioxin-5-yl)piperidin-1-yl)methyl)-4-(difluoromethoxy)-1-methyl-1H-benzo[d]imidazole-6-carboxylic acid] | 10 to 100 | > 85 |
| COc1c(Cl)ccc(COc2cccc(C3CCN(Cc4nc5c(OC(F)F)cc(C(=O)O)cc5n4C)CC3)n2)c1F [Compound 212, 2-((4-(6-((4-Chloro-2-fluoro-3-methoxybenzyl)oxy)pyridin-2-yl)piperidin-1-yl)methyl)-4-(difluoromethoxy)-1-methyl-1H-benzo[d]imidazole-6-carboxylic acid] | 100 to 1000 | > 85 |
| Cn1c(CN2CCC(c3cccc(OCc4ccc(C(F)F)cc4F)n3)CC2)nc2c(OC(F)F)cc(C(=O)O)cc21 [Compound 201, 4-(Difluoromethoxy)-2-((4-(6-((4-(difluoromethyl)-2-fluorobenzyl)oxy)pyridin-2-yl)piperidin-1-yl)methyl)-1-methyl-1H-benzo[d]imidazole-6-carboxylic acid] | 10 to 100 | > 85 |

Reference: US20240368120A1 (Terns Pharmaceuticals, Inc., priority 2023, published 2024)
